The target of one data set is T1, paAzoR1 (Pseudomonas aeruginosa, UniProt Q9I5F3).
T1 sequence (Q9I5F3 1-212): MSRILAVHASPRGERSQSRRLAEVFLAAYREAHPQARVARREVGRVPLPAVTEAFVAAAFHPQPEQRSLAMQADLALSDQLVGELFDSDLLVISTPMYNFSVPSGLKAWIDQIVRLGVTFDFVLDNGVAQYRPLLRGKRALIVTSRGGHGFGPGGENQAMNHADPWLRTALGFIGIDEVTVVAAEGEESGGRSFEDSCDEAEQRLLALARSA
The data set can be described thus: X-ray crystal structure, […] Å. The class given is binding. The following applies: complex with nitrofurazone; FMN in active site.

Substrate in the data set “purified protein”: NC(=O)N/N=C/c1ccc([N+](=O)[O-])o1
The data set can be described thus: purified protein. The following applies: 750 μM NADPH, 20 mM Tris-HCl pH 8.0, 100 mM NaCl.

Take `Cc1cc2nc3c(=O)[nH]c(=O)nc-3n(C[C@H](O)[C@H](O)[C@H](O)COP(=O)(O)O)c2cc1C` [FMN]: the “X-ray crystal structure, 2.08 Å” value at paAzoR1 is recorded as “The FMN is shown with yellow carbon atoms”.

B1: paAzoR1 (Pseudomonas aeruginosa PAO1) (protein)
chain: T1 sequence (Q9I5F3 1-212)
In the case of B1, the Km – broadly, the substrate concentration at which the rate is half of its maximum – in “purified protein” was found to be 15.7 ± 1.6 µM.

The values above are taken from publication PMC3216550 (Scientific Reports, 2011).
